This is an account of results in patent publication US8026217B2, “Compositions and methods for treating neural anoxia and spreading depression” (Florida Atlantic University, priority 2007, dated 2011).

Experiment [1] concerns mammals (mouse or rat). In words: Spreading depression in mammals. The experiment is classed as in vivo. Particulars: expected. The text has this:
The pharmacological effects of a PDE5 inhibitor, 8-bromo-GMP, KT5823, and Cantharidin during spreading depression are examined in mammals (mouse or rat).

The subject of experiment [2] is metathoracic ganglion of the locust. Nature of the experiment: SD-like events evoked by high-potassium (KCl 150 mM) injection into the locust metathoracic ganglion. In kind it is in vivo, Locusta migratoria. The text has this: CSD is increasingly accepted as a primary causative agent for migraine, particularly migraine with aura. The cellular mechanisms underlying stroke, seizures and migraine are not exclusive to mammals. Using the locust (Locusta migratoria), a proven model for examining the effects of heat stress on CNS activity, a rapid rise in extracellular potassium ([K^+]o) during anoxia/hypoxia, extreme heat, and ouabain exposure was monitored. This phenomenon has all the characteristics of SD in the neocortex of mammals. Since the physiological mechanisms observed in locust SD-like events are similar to that of mammals, findings in this insect model are predictably transferable to mammals, including humans. In the locust, model SD-like events were triggered in the CNS by injecting small volumes of saline containing high levels of potassium ions (KCl at 150 mM instead of the nominal resting level of 10 mM) into the metathoracic ganglion. Potassium-sensitive microelectrodes were used to measure SD generated by KCl injections, while manipulating the PKG pathway.
This tissue response is characterised by a transient surge and subsequent clearance of potassium ions in the extracellular space ([K^+]o). During SD-like events ventilatory motor activity ceases. This was monitored using an electromyographic electrode positioned on an abdominal muscle used for ventilation (Ventilatory EMG). Upon restoration of the potassium ion gradient the neural activity recovered and preparations began to ventilate again.
The first injection was used as a control. Following the first injection, animals were allowed 10 minutes of perfusion with standard locust saline before treatment with bath applications of selected drugs (i.e. KT5823, T-0156). All drugs were dissolved in a minimum amount of DMSO before further dilution with standard locust saline to a concentration of 10^−5M and were superfused over the metathoracic ganglion for 10 minutes before the second injection. A total of 20 minutes elapsed between the first and second injection in all experiments. As shown in Figure (Bi), duration at half the maximum amplitude was used to characterize the severity of SD-like events. A significant increase was observed following the second injection when compared to the first in control animals. […] Heat shock (HS) preconditioning reduced SD duration evoked by the first and second injections. […] Numbers in the histogram bars indicate number of preparations tested. Asterisks indicate statistically significant differences between the first and second injection ([…]).
Motor pattern activity was not measured for T-0156/Cantharidin treatments. […] Figure (Cii) illustrates the drug effects by showing the percentage difference in rhythm recovery time (second injection relative to first injection).
Single SD events were evoked by injection of saline (50 nL) containing elevated potassium chloride (150 mM vs. 10 mM) directly into the metathoracic ganglion. […] During SD, ventilatory motor activity monitored electromyographically (EMG) ceased and recovered upon restoration of the potassium ion gradient. The duration of the [K^+]o wave at half its maximal amplitude and the time from failure of motor patterning to the recovery of a ventilatory rhythm were measured. […] Numbers in brackets represent sample size.
As in Example 3, SD events were evoked by injection of saline (50 nL) containing elevated potassium chloride (150 mM vs. 10 mM) directly into the metathoracic ganglion of locust preparations.

For experiment [3], the system named is zebrafish. Nature of the experiment: Zebrafish behaviour during acute anoxia. The experiment is classed as in vivo. As to conditions: whole zebrafish in anoxic water post-treatment; expected. From the text: Vertebrate (zebrafish) behaviour is examined during acute anoxia. Whole zebrafish are exposed to anoxic water post-treatment with a PDE5 inhibitor, 8-bromo-GMP, KT5823, and Cantharidin. The time until the animal knocks out during anoxia is monitored.

SMILES strings stand for the structures.

Turning to `COC(=O)[C@@]1(OC)C[C@H]2O[C@]1(C)n1c3ccccc3c3c4c(c5c6ccccc6n2c5c31)C(=O)N(C)C4` [KT5823, (9S, 10R, 12R)-2,3,9,10,11,12-Hexahydro-10-methoxy-2-9-dimethyl-1-oxo-9,12-epoxy-1H-diindolo-[1,2,3-fg:3′,2′,1′-k1]pyrrolo[3,4-i][1,6]benzodiazocine-10-carboxylic acid methyl ester], the “SD-like events and neural function” value in experiment [1] is “neuroprotection and reduces SD-like events thereby prolonging neural function”. For the same compound, the “length of time to recover ventilatory motor pattern activity after SD” value in experiment [2] (Example 1, bath application 10^-5 M for 10 minutes before second KCl injection) is “untreated preparations and those treated with T-0156 took significantly longer to recover”. Besides, in experiment [3], the “time until the animal knocks out during anoxia” value is “neuroprotection and prolonged behaviour when subject to anoxia”.

Take `Nc1nc2c(nc(Br)n2[C@@H]2O[C@@H]3COP(=O)(O)O[C@H]3[C@H]2O)c(=O)[nH]1` [8-Br-cGMP]: the “SD-like events and neural function” value in experiment [1] is “increased SD-like events causing early failure of neural function”. Besides, in experiment [2] (Example 3, drug applied for 10 minutes prior to second injection, FIG. 3D), the “recovery time of ventilatory rhythm, second event versus first” value is recorded as “The recovery time was increased”. Further, in experiment [3], the “time until the animal knocks out during anoxia” value is listed as “increased sensitivity to anoxia causing early failure of behaviour (neural function)”.
